# Source: patent US20250074906A1, “AZAINDOLE DERIVATIVE THAT INHIBITS H-PGDS” (SATO PHARMACEUTICAL CO., LTD., priority 2021, published 2025)
# Target: T1, Recombinant human H-PGDS (Homo sapiens, UniProt O60760)
# T1 construct: made in house; host or cells: E. coli
# Assay: H-PGDS inhibitory activity (prostaglandin D2 production measured by LC-MS/MS)
# Assay type: biochemical
# Conditions: recombinant human H-PGDS 1.0 nM expressed in E. coli; prostaglandin H2 25 μM; 15 min preincubation and 1 min reaction on ice
# Experimental: The H-PGDS inhibitory activity of each Example compound was measured according to the method described in WO 2007/041634.
# Recombinant human H-PGDS (final concentration: 1.0 nM) expressed in E. coli was mixed in an assay buffer containing 20 mM Tris-HCl (pH 8.0), 2 mM magnesium chloride, 2 mM reduced glutathione, and 0.5 mg/mL γ-globulin, and 150 μL of the mixture was dispensed into an 8-strip PCR tube (BM Equipment Co., Ltd). Test compounds (Example compounds) (16.5 μL) at various concentrations dissolved in DMSO were added and the mixture was preincubated for 15 minutes on ice.
# Prostaglandin H2 (final concentration: 25 μM) (Cayman Chemical) was dispensed into another 8-strip PCR tube, and the solvent was dried and solidified using a vacuum concentrator (Thermo Fisher Scientific). To the dried and solidified prostaglandin H2 was added 50 μL of the assay buffer containing H-PGDS and each test compound after the preincubation, and the mixture was reacted on ice for 1 minute. 40 μL of this mixture was added to 40 μL of a stop solution (50 mM aqueous citric acid solution containing iron chloride at a final concentration of 4 mg/mL) to stop the reaction. Then, the reaction solution was deproteinized, added to a 96 square deep well plate (SHONANMARUHACHI STEC Co., Ltd.), and the prostaglandin D2 concentration in the reaction solution was measured by LC-MS/MS. ACQUITY (registered trademark) TQD (Waters) was used as a measuring instrument.
# Prostaglandin D2 production activity (%) in the group with each test compound when a value obtained by subtracting the amount of production of prostaglandin D2 in the group without enzyme, which is non-specific production of prostaglandin D2, from the amount of production of prostaglandin D2 in the group without test compound (DMSO-addition group) in each 8-strip PCR tube is 100% was calculated. From the calculated activity value, the test compound concentration that inhibits prostaglandin D2 production by 50% (IC50) was determined.
# T1 sequence (O60760 whole entry): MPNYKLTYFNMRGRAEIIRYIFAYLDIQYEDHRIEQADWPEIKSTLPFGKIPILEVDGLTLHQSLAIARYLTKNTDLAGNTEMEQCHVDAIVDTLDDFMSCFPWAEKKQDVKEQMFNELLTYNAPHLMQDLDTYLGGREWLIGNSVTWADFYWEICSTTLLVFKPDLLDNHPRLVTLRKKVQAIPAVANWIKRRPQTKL
row,IC50,SMILES
1,24 nM,"CC(C)(O)[C@H]1CC[C@H](NC(=O)c2ccc(-c3nccc4[nH]nnc34)cc2)CC1 [Example 45, 4-(1H-[1,2,3]triazolo[4,5-c]pyridin-4-yl)-N-[trans-4-(2-hydroxypropan-2-yl)cyclohexyl]benzamide]"
2,5.3 nM,"CC(C)(O)[C@H]1CC[C@H](NC(=O)c2ccc(-c3ncc(F)c4[nH]ncc34)cc2)CC1 [Example 46, 4-(7-fluoro-1H-pyrazolo[4,3-c]pyridin-4-yl)-N-[trans-4-(2-hydroxypropan-2-yl)cyclohexyl]benzamide]"
3,14 nM,"O=C(NC12CCC(O)(CC1)CC2)c1ccc(-c2ncc(F)c3[nH]ncc23)cc1 [Example 47, 4-(7-fluoro-1H-pyrazolo[4,3-c]pyridin-4-yl)-N-(4-hydroxybicyclo[2.2.2]octan-1-yl)benzamide]"
4,5.9 nM,"CC(C)(O)[C@H]1CC[C@H](NC(=O)c2ccc(-c3ncc(Cl)c4[nH]ncc34)cc2)CC1 [Example 48, 4-(7-chloro-1H-pyrazolo[4,3-c]pyridin-4-yl)-N-[trans-4-(2-hydroxypropan-2-yl)cyclohexyl]benzamide]"
5,0.78 nM,"CC(C)(O)[C@H]1CC[C@H](NC(=O)c2ccc(-c3nccc4[nH]ncc34)c(F)c2)CC1 [Example 49, 3-fluoro-N-[trans-4-(2-hydroxypropan-2-yl)cyclohexyl]-4-(1H-pyrazolo[4,3-c]pyridin-4-yl)benzamide]"

# Further lines, the compound ahead of its results:
row,SMILES,IC50
1,"C[C@]1(O)CC[C@H](NC(=O)c2ccc(-c3ncc(Cl)c4[nH]ccc34)cc2)CC1 [Example 34, 4-(7-chloro-1H-pyrrolo[3,2-c]pyridin-4-yl)-N-(trans-4-hydroxy-4-methylcyclohexyl)benzamide]",0.86 nM
2,"CC(C)(O)[C@H]1CC[C@H](NC(=O)c2ccc(-c3ncc(F)c4[nH]ccc34)c(F)c2)CC1 [Example 35, 3-fluoro-4-(7-fluoro-1H-pyrrolo[3,2-c]pyridin-4-yl)-N-[trans-4-(2-hydroxypropan-2-yl)cyclohexyl]benzamide]",1.2 nM
3,"O=C(NC12CCC(O)(CC1)CC2)c1ccc(-c2ncc(F)c3[nH]ccc23)c(F)c1 [Example 36, 3-fluoro-4-(7-fluoro-1H-pyrrolo[3,2-c]pyridin-4-yl)-N-(4-hydroxybicyclo[2.2.2]octan-1-yl)benzamide]",0.71 nM
4,"C[C@]1(O)CC[C@H](NC(=O)c2ccc(-c3ncc(F)c4[nH]ccc34)c(F)c2)CC1 [Example 37, 3-fluoro-4-(7-fluoro-1H-pyrrolo[3,2-c]pyridin-4-yl)-N-(trans-4-hydroxy-4-methylcyclohexyl)benzamide]",0.95 nM
5,"O=C(NC1CCOCC1)c1ccc(-c2ncc(F)c3[nH]ccc23)c(F)c1 [Example 38, 3-fluoro-4-(7-fluoro-1H-pyrrolo[3,2-c]pyridin-4-yl)-N-(tetrahydropyran-4-yl)benzamide]",0.85 nM
6,"O=C(N[C@H]1CC[C@H](O)CC1)c1ccc(-c2ncc(F)c3[nH]ccc23)c(F)c1 [Example 39, 3-fluoro-4-(7-fluoro-1H-pyrrolo[3,2-c]pyridin-4-yl)-N-(trans-4-hydroxycyclohexyl)benzamide]",0.65 nM
7,"C[C@]1(O)CC[C@@H](NC(=O)c2ccc(-c3ncc(F)c4[nH]ccc34)c(F)c2)CC1 [Example 40, 3-fluoro-4-(7-fluoro-1H-pyrrolo[3,2-c]pyridin-4-yl)-N-(cis-4-hydroxy-4-methylcyclohexyl)benzamide]",1.1 nM
8,"O=C(NC12CCC(O)(CC1)C2)c1ccc(-c2ncc(F)c3[nH]ccc23)c(F)c1 [Example 41, 3-fluoro-4-(7-fluoro-1H-pyrrolo[3,2-c]pyridin-4-yl)-N-(4-hydroxybicyclo[2.2.1]heptan-1-yl)benzamide]",0.89 nM
9,"O=C(N[C@H]1CC[C@@H](O)CC1)c1ccc(-c2ncc(F)c3[nH]ccc23)c(F)c1 [Example 42, 3-fluoro-4-(7-fluoro-1H-pyrrolo[3,2-c]pyridin-4-yl)-N-(cis-4-hydroxycyclohexyl)benzamide]",0.92 nM
10,"CC(C)(O)[C@H]1CC[C@H](NC(=O)c2ccc(-c3nccc4[nH]ncc34)cc2)CC1 [Example 43, N-[trans-4-(2-hydroxypropan-2-yl)cyclohexyl]-4-(1H-pyrazolo[4,3-c]pyridin-4-yl)benzamide]",2.4 nM
11,"CC(C)(O)[C@H]1CC[C@H](NC(=O)c2ccc(-c3nccc4[nH]cnc34)cc2)CC1 [Example 44, N-[trans-4-(2-hydroxypropan-2-yl)cyclohexyl]-4-(1H-imidazo[4,5-c]pyridin-4-yl)benzamide]",4 nM
